This note sets out measurements from ChEMBL document CHEMBL1201862, “PubChem BioAssay data set” (2004).

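Grown in 96-well plates, cells were treated for 48 hours with each compound at five concentrations. Insufficient inhibition: endpoint recorded as highest concentration tested. Here, GI50 denotes the concentration required for 50% inhibition of growth.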 Active and inactive are the calls of the source. Cut-off read from the data, not from the text of the source: active = GI50 up to about 1.1 µM and inactive = higher. Bounds are passed on as bounds.

Holding throughout (assay): NCI tumour cell line growth inhibition, 48 h
Assay [1] deals with MDA-MB-231.
Assay [2] concerns RPMI-8226.
Assay [3] concerns NCI-H226.
The subject of assay [4] is UACC-62.
The subject of assay [5] is A549.
For assay [6], the system named is NCI/ADR-RES.
Assay [7] concerns UO-31.
Assay [8] deals with PC-3.
Assay [9] has as its system Malme-3M.
Assay [10] deals with MCF7.
Assay [11] relates to K562.
Assay [12] has as its system BT-549.
The test system of assay [13] is DU-145.
Assay [14] deals with 786-0.
The subject of assay [15] is SNB-19.
Assay [16] deals with SF-295.
For assay [17], the system named is Hs-578T.
The subject of assay [18] is RXF 393.
For assay [19], the system named is HL-60.
For assay [20], the system named is SR.

Consider `CC(C)(C)OC(=O)NCCCCC(N)NC(=O)c1ccccc1` (centres undefined), for which the GI50 in [1], in assay [2], in [3], in assay [4], in [5] and in assay [6] was > 100 µM (inactive) in each case. Further, the GI50 in assay [7], in assay [8], in assay [9], in assay [10], in [11] and in assay [12] was > 100 µM (inactive) each time. Besides, the GI50 in assay [13], in assay [14], in [15], in assay [16], in assay [17] and in [18] was > 100 µM (inactive) each time.
As for `O=CN1CCN(C(=O)c2ccc(Cl)c(Cl)c2)C1=S`, the GI50 is 14.6 µM (inactive) in [1]; 2.84 µM (inactive) in [2]; 20.7 µM (inactive) in [3]; 16 µM (inactive) in [4]; 17.7 µM (inactive) in assay [5]; 32.9 µM (inactive) in assay [6]. The GI50 was 14.7 µM (inactive) in assay [8]; 20.5 µM (inactive) in assay [9]; 4.63 µM (inactive) in [10]; 13.8 µM (inactive) in [11]; 18 µM (inactive) in [12]; 15.7 µM (inactive) in [13]. Also, the GI50 in assay [14] is 4.53 µM (inactive); in assay [19] it was 24.6 µM (inactive); in assay [15] it was 17.5 µM (inactive); in [16] it was 17.9 µM (inactive); in assay [17] it was 39.5 µM (inactive); in assay [18] it was 17.5 µM (inactive).
`O=[N+]([O-])c1cccc2nnccc12`: the GI50 in [1] is > 10 µM (inactive); in [2], 22 µM (inactive); in assay [3], 16 µM (inactive); in assay [4], 13.6 µM (inactive); in assay [5], 54.8 µM (inactive); in [6] it was 34.1 µM (inactive). For the same molecule, the GI50 in assay [7] is 28.6 µM (inactive); in assay [8], 31.8 µM (inactive); in assay [9], 11.9 µM (inactive); in assay [10] it was 21.1 µM (inactive); in [11] it was 23.9 µM (inactive); in assay [12], 29.6 µM (inactive). In addition, the GI50 in assay [13] was 38.7 µM (inactive); in assay [14], 12.6 µM (inactive); in [19] it was 2.5 µM (inactive); in assay [15], 35.9 µM (inactive); in assay [16], 42.7 µM (inactive); in assay [17], 51.5 µM (inactive). In assay [18], the GI50 is 63.5 µM (inactive).
Turning to `CCSC1=N/C(=C\c2ccco2)C(NN)=N1`, the GI50 in [1], in [2], in assay [3], in assay [4], in [5] and in assay [6] was > 50 µM (inactive) each time. In addition, the GI50 in assay [7], in assay [8], in [9], in assay [11], in assay [12] and in [13] was > 50 µM (inactive) throughout. The GI50 in assay [14], in assay [19], in assay [15], in assay [16], in assay [17] and in assay [18] was > 50 µM (inactive) throughout.
Regarding `C/C=C/C=C\C1OC(O)([C@H](CC)C(=O)NC/C=C/C=C(\C)[C@H](OC)C(C)C2OC(\C=C/C=C/C=C(\C)C(=O)c3c(O)ccn(C)c3=O)[C@H](O)[C@@H]2O)C(O)C(O)C1(C)C` (some centres undefined), the GI50 in assay [1] is > 100 µM (inactive); in assay [2], 20.3 µM (inactive); in assay [3], > 100 µM (inactive); in assay [4], 96.2 µM (inactive); in assay [5], > 100 µM (inactive); in assay [6] it was > 100 µM (inactive). Besides, the GI50 was > 100 µM (inactive) in [7]; 64.3 µM (inactive) in assay [8]; > 100 µM (inactive) in assay [10]; 73.5 µM (inactive) in assay [11]; > 100 µM (inactive) in [12]; > 100 µM (inactive) in assay [13]. The GI50 is 71 µM (inactive) in assay [14]; 54.3 µM (inactive) in [19]; > 100 µM (inactive) in [15]; > 100 µM (inactive) in assay [16]; > 100 µM (inactive) in assay [17]; > 100 µM (inactive) in [18].
Consider `Nc1ccc(C2SCC(=O)N2NS(=O)(=O)c2cccc(C(=O)O)c2)cc1` (centres undefined), for which the GI50 in assay [1] is > 100 µM (inactive); in [2], 10.4 µM (inactive); in assay [3] it was > 100 µM (inactive); in [4], > 100 µM (inactive); in assay [5], > 100 µM (inactive); in [7] it was > 100 µM (inactive). The GI50 in assay [8] was > 100 µM (inactive); in [9] it was 18.1 µM (inactive); in assay [20], 12.1 µM (inactive); in [10], > 100 µM (inactive); in [11], > 100 µM (inactive); in assay [12], > 100 µM (inactive). Besides, the GI50 in [13], in [14], in assay [19], in [15], in assay [16] and in assay [17] was > 100 µM (inactive) each time. The GI50 in assay [18] is > 100 µM (inactive).
For the molecule `NC(Cc1ccc(S(=O)(=O)O)cc1)C(=O)NC(Cc1ccc(S(=O)(=O)O)cc1)C(=O)NC(Cc1ccc(S(=O)(=O)O)cc1)C(=O)O` (centres undefined), the GI50 in [1], in [2], in assay [3], in assay [4], in [5] and in assay [6] was > 100 µM (inactive) throughout. Further, the GI50 in assay [7], in assay [8], in assay [9], in assay [10], in assay [11] and in [12] was > 100 µM (inactive) throughout. The GI50 in [13], in assay [14], in assay [19], in [16], in assay [17] and in assay [18] was > 100 µM (inactive) in each case.
As for `CC1=C(C)C(=O)C(C2=CC(=O)C=CC2=O)=C(C2=CC(=O)C=CC2=O)C1=O`, the GI50 was 18.4 µM (inactive) in assay [1]; > 100 µM (inactive) in assay [3]; 39.6 µM (inactive) in assay [4]; 98.9 µM (inactive) in assay [5]; > 100 µM (inactive) in [6]; 41.7 µM (inactive) in assay [7]. In addition, the GI50 in assay [8] was 62.8 µM (inactive); in assay [9], 66.1 µM (inactive); in assay [10], 26.4 µM (inactive); in assay [12], 86.9 µM (inactive); in assay [13], > 100 µM (inactive); in assay [14], 76.7 µM (inactive). Further, the GI50 in assay [19] was 14.9 µM (inactive); in assay [15], > 100 µM (inactive); in assay [16], > 96.2 µM (inactive); in assay [17] it was 45.4 µM (inactive); in assay [18], 41.9 µM (inactive).
Turning to `Cc1cnc2c(c1)C(=O)N(c1ccc(Br)cc1)S2(=O)=O`, the GI50 in assay [1] is > 100 µM (inactive); in assay [2] it was > 100 µM (inactive); in assay [3], 78 µM (inactive); in assay [4], > 100 µM (inactive); in assay [5], > 100 µM (inactive); in [6], > 100 µM (inactive). Also, the GI50 was > 100 µM (inactive) in assay [7]; > 100 µM (inactive) in assay [8]; 35.6 µM (inactive) in [9]; > 100 µM (inactive) in assay [10]; > 100 µM (inactive) in assay [12]; > 100 µM (inactive) in assay [13]. Moreover, the GI50 in assay [14] was > 100 µM (inactive); in assay [19], 30.1 µM (inactive); in [15], > 100 µM (inactive); in assay [16], > 100 µM (inactive); in [17], 24.5 µM (inactive).
Take `COC(=O)C1=C2Nc3ccccc3C23CCN2C(O)C4(CC5CC67CCOC6CCN6CCC8(c9cccc(OC)c9N(C4)C58O)C67)C4OCCC4(C1)C23` (centres undefined): the GI50 was 15.6 µM (inactive) in [1]; > 100 µM (inactive) in assay [2]; 87.9 µM (inactive) in assay [3]; > 100 µM (inactive) in [4]; > 100 µM (inactive) in [5]; > 100 µM (inactive) in assay [7]. Further, the GI50 in assay [8] was 34.8 µM (inactive); in assay [9], 56.4 µM (inactive); in [20], 14.7 µM (inactive); in [10] it was 47.2 µM (inactive); in assay [11], > 100 µM (inactive); in assay [12] it was > 100 µM (inactive). For the same molecule, the GI50 in assay [13] is 36.3 µM (inactive); in [14], 24.3 µM (inactive); in assay [19], > 100 µM (inactive); in assay [15], 45.7 µM (inactive); in [16], 34.6 µM (inactive); in [17], 22.5 µM (inactive). In addition, the GI50 in [18] was 49.7 µM (inactive).
For the molecule `C=C(C)[C@@H]1CCC2=C(CC[C@]3(C)[C@@H]([C@@H](CCC=C(C)C)C(=O)O)[C@H](O)C[C@@]23C)[C@@]1(C)CCC(=O)O` [PORICOIC ACID G], the GI50 in [1] is > 100 µM (inactive); in assay [2], 88.7 µM (inactive); in assay [3] it was 57.3 µM (inactive); in [5], 42.1 µM (inactive); in [6] it was > 100 µM (inactive); in assay [7], > 100 µM (inactive). Further, the GI50 in assay [8] is 45.6 µM (inactive); in assay [9], > 100 µM (inactive); in [20], 29.4 µM (inactive); in assay [11] it was 53.2 µM (inactive); in assay [12], 71.9 µM (inactive); in assay [13] it was > 100 µM (inactive). The GI50 is 85.9 µM (inactive) in assay [14]; 0.0393 µM (active) in assay [19]; 46 µM (inactive) in assay [15]; 50.4 µM (inactive) in assay [16]; > 100 µM (inactive) in assay [17]; 41.4 µM (inactive) in [18].
